Where a name gives a salt, the structure may show the parent alone.
Tests used:
BACE2 enzyme = BACE2 enzyme (Homo sapiens (Human), UniProt Q9Y5Z0); assay: BACE2 Cell-free Assay (fluorescence polarization, synthetic substrate); type: biochemical; conditions: single determination
Procedure: This assay measures the inhibition of the BACE2 enzyme as it cleaves a non-native peptide. A synthetic substrate that can be cleaved by BACE2 having N-terminal biotin and made fluorescent by the covalent attachment of Oregon Green at the Cys residue is used to assay BACE2 activity in the presence or absence of the inhibitory compounds. The substrate is Biotin-[…]-C(Oregon green)-KK-OH. The BACE2 enzyme is available from Enzo Life Sciences (Cat # BML-SE550). Compounds are incubated in a ½ log dose response curve from a top concentration of 100 μM with BACE2 enzyme and the biotinylated fluorescent peptide in 384-well black plates (Thermo Scientific #4318). BACE2 is at a final concentration of 2.5 nM with a final concentration of peptide substrate of 150 nM in a reaction volume of 30 μL assay buffer (100 mM Sodium Acetate, pH 4.5 (brought to pH with acetic acid), and 0.001% Tween-20). Plates are covered and incubated for 3 hours at 37° C. The reaction is stopped with the addition of 30 μL of 1.5 μM Streptavidin (Pierce, #21125). After a 10 minute incubation at room temperature, plates are read on a PerkinElmer Envision for fluorescent polarization (Ex485 nm/Em530 nm). The activity of the beta-secretase enzyme is detected by changes in the fluorescence polarization that occur when the substrate is cleaved by the enzyme.

[1] = tested on: H4 human neuroglioma cells over-expressing the wild-type human APP695; assay: sAPPβ Whole-Cell Assay (in vitro sAPPb assay, ELISA); type: cell-based; conditions: 18 hours, geometric mean of 2-7 determinations (values marked b: single determination)
Procedure: Whole Cell-Free Assay (In Vitro sAPPb Assay):
H4 human neuroglioma cells over-expressing the wild-type human APP695 are treated for 18 hours with compound in a final concentration 1% DMSO. sAPPβ levels are measured using TMB-ELISA with capture APP N-terminal antibody (Affinity BioReagents, OMA1-03132), wild-type sAPPβ specific reporter p192 (Elan), and tertiary anti rabbit-HRP (GE Healthcare).

BACE1 enzyme = BACE1 enzyme (Homo sapiens (Human), UniProt P56817); assay: BACE1 Cell-Free Assay (fluorescence polarization, synthetic APP substrate); type: biochemical; conditions: geometric mean of 2-7 determinations (values marked b: single determination)
Excerpt: This assay measures the inhibition of the beta-secretase enzyme as it cleaves a non-native peptide.
A synthetic APP substrate that can be cleaved by beta-secretase having N-terminal biotin and made fluorescent by the covalent attachment of Oregon Green at the Cys residue is used to assay beta-secretase activity in the presence or absence of the inhibitory compounds. […] The BACE1 enzyme is affinity purified material from conditioned media of CHO-K1 cells that have been transfected with a soluble BACE construct (BACE1deltaTM96His). Compounds are incubated in a ½ log dose response curve from a top concentration of 100 μM with BACE1 enzyme and the biotinylated fluorescent peptide in 384-well black plates (Thermo Scientific #4318). BACE1 is at a final concentration of 0.1 nM with a final concentration of peptide substrate of 150 nM in a reaction volume of 30 μL assay buffer (100 mM sodium acetate, pH 4.5 (brought to pH with acetic acid), and 0.001% Tween-20). Plates are covered and incubated for 3 hours at 37° C. The reaction is stopped with the addition of 30 μL of 1.5 μM Streptavidin (Pierce, #21125). After a 10 minute incubation at room temperature, plates are read on a PerkinElmer Envision for fluorescent polarization (Ex485 nm/Em530 nm). The activity of the beta-secretase enzyme is detected by changes in the fluorescence polarization that occur when the substrate is cleaved by the enzyme.

BACE1 enzyme, sequence (P56817 46-457): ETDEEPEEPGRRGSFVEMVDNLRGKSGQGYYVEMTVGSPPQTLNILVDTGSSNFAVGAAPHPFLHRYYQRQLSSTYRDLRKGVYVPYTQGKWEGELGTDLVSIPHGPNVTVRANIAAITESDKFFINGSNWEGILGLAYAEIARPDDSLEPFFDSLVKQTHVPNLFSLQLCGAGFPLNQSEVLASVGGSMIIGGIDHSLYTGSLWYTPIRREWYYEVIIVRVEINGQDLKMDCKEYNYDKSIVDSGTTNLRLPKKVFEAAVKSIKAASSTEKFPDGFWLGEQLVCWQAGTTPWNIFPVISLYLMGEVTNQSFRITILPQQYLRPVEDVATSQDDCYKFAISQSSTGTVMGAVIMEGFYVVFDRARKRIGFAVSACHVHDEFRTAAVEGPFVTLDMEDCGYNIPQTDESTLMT
BACE2 enzyme, sequence (Q9Y5Z0 63-518): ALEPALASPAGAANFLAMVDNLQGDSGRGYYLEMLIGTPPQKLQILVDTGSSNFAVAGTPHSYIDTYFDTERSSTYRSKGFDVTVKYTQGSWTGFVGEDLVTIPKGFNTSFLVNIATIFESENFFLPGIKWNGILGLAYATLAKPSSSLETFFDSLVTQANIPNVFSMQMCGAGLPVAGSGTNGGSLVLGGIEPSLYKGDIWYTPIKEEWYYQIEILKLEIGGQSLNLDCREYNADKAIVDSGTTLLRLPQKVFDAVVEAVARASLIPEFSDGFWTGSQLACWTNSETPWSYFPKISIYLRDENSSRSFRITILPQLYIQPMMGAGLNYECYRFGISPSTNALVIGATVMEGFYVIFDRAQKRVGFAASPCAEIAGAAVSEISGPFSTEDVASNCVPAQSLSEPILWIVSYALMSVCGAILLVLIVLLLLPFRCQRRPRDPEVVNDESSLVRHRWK

| IC50 ([1]; Homo sapiens) | Structure (SMILES) | IC50 (BACE2 enzyme) | IC50 [1] | IC50 (BACE1 enzyme) |
| --- | --- | --- | --- | --- |
| – | NC1=N[C@@]2(c3ccc(F)cc3F)CO[C@@H](c3ncco3)C[C@H]2CS1 [Example 1, (4aR,6R,8aS)-8a-(2,4-Difluorophenyl)-6-(1,3-oxazol-2-yl)-4,4-a,5,6,8,8a-hexahydropyrano[3,4-][1,3]thiazin-2-amine] | 619 nM | 32 nM | 511 nM |
| – | Cn1ccc([C@H]2C[C@H]3CSC(N)=N[C@@]3(c3ccc(F)cc3F)CO2)n1 [Example 2, (4aR,6R,8aS)-8a-(2,4-Difluorophenyl)-6-(1-methyl-1H-pyrazol-3-yl)-4,4-a,5,6,8,8a-hexahydropyrano[3,4-][1,3]thiazin-2-amine] | 4740 nM | 17 nM | 183 nM |
| – | Cn1nccc1[C@H]1C[C@H]2CSC(N)=N[C@@]2(c2ccc(F)cc2F)CO1 [Example 3, (4aR,6R,8aS)-8a-(2,4-Difluorophenyl)-6-(1-methyl-1H-pyrazol-5-yl)-4,4-a,5,6,8,8a-hexahydropyrano[3,4-d][1,3]thiazin-2-amine] | – | 636 nM | 7780 nM |
| – | Cc1coc([C@H]2C[C@H]3CSC(N)=N[C@@]3(c3ccc(F)cc3F)CO2)n1 [Example 4, (4aR,6R,8aS)-8a-(2,4-Difluorophenyl)-6-(4-methyl-1,3-oxazol-2-yl)-4,4-a,5,6,8,8a-hexahydropyrano[3,4-][1,3]thiazin-2-amine] | 273 nM | 4 nM | 84 nM |
| – | Cc1cnc([C@H]2C[C@H]3CSC(N)=N[C@@]3(c3ccc(F)cc3F)CO2)o1 [Example 5, (4aR,6R,8aS)-8a-(2,4-Difluorophenyl)-6-(5-methyl-1,3-oxazol-2-yl)-4,4-a,5,6,8,8a-hexahydropyrano[3,4-d][1,3]thiazin-2-amine] | 1150 nM | 23 nM | 473 nM |
| – | C[C@H]1SC(N)=N[C@@]2(c3ccc(F)cc3F)CO[C@@H](c3ncco3)C[C@@H]12 [Example 6, (4R,4aR,6R,8aS)-8a-(2,4-Difluorophenyl)-4-methyl-6-(1,3-oxazol-2-yl)-4,4-a,5,6,8,8a-hexahydropyrano[3,4-][1,3]thiazin-2-amine] | 2370 nM | 32 nM | 198 nM |
| – | Cn1cc([C@H]2C[C@H]3CSC(N)=N[C@@]3(c3ccc(F)cc3F)CO2)cn1 [Example 7, (4aR,6R,8aS)-8a-(2,4-Difluorophenyl)-6-(1-methyl-1H-pyrazol-4-yl)-4,4-a,5,6,8,8a-hexahydropyrano[3,4-][1,3]thiazin-2-amine] | 185 nM | 5 nM | – |
| – | Cc1csc([C@H]2C[C@H]3CSC(N)=N[C@@]3(c3ccc(F)cc3F)CO2)n1 [Example 8, (4aR,6R,8aS)-8a-(2,4-Difluorophenyl)-6-(4-methyl-1,3-thiazol-2-yl)-4,4-a,5,6,8,8a-hexahydropyrano[3,4-][1,3]thiazin-2-amine] | 9720 nM | 27 nM | 260 nM |
| – | Cc1nccc([C@H]2C[C@H]3CSC(N)=N[C@@]3(c3ccc(F)cc3F)CO2)n1 [Example 9, (4aR,6R,8aS)-8a-(2,4-Difluorophenyl)-6-(2-methylpyrimidin-4-yl)-4,4-a,5,6,8,8a-hexahydropyrano[3,4-][1,3]thiazin-2-amine] | > 100000 nM | 28 nM | 583 nM |
| – | Cc1nc([C@H]2C[C@H]3CSC(N)=N[C@@]3(c3ccc(F)cc3F)CO2)co1 [Example 11, (4aR,6R,8aS)-8a-(2,4-Difluorophenyl)-6-(2-methyl-1,3-oxazol-4-yl)-4,4-a,5,6,8,8a-hexahydropyrano[3,4-d][1,3]thiazin-2-amine, hydrochloride salt] | 2020 nM | 34 nM | 316 nM |
| – | Cc1ccnc([C@H]2C[C@H]3CSC(N)=N[C@@]3(c3ccc(F)cc3F)CO2)n1 [Example 12, (4aR,6R,8aS)-8a-(2,4-Difluorophenyl)-6-(4-methylpyrimidin-2-yl)-4,4-a,5,6,8,8a-hexahydropyrano[3,4-][1,3]thiazin-2-amine] | – | 50 nM | 1470 nM |
| – | NC1=N[C@@]2(c3ccc(F)cc3F)CO[C@@H](c3nnco3)C[C@H]2CS1 [Example 14, (4aR,6R,8aS)-8a-(2,4-Difluorophenyl)-6-(1,3,4-oxadiazol-2-yl)-4,4-a,5,6,8,8a-hexahydropyrano[3,4-][1,3]thiazin-2-amine] | – | 196 nM | 2210 nM |
| – | Cc1nc([C@H]2C[C@H]3CSC(N)=N[C@@]3(c3ccc(F)cc3F)CO2)oc1C [Example 15, (4aR,6R,8aS)-8a-(2,4-Difluorophenyl)-6-(4,5-dimethyl-1,3-oxazol-2-yl)-4,4-a,5,6,8,8a-hexahydropyrano[3,4-d][1,3]thiazin-2-amine] | 2820 nM | 7 nM | 112 nM |
| – | Cc1cc([C@H]2C[C@H]3CSC(N)=N[C@@]3(c3ccc(F)cc3F)CO2)on1 [Example 16, (4aR,6R,8aS)-8a-(2,4-Difluorophenyl)-6-(3-methyl-1,2-oxazol-5-yl)-4,4-a,5,6,8,8a-hexahydropyrano[3,4-][1,3]thiazin-2-amine] | – | 3 nM | 59 nM |
| 28 nM | NC1=N[C@@]2(c3ccc(F)cc3F)CO[C@@H](c3ccncn3)C[C@H]2CS1 [Example 18, (4aR,6R,8aS)-8a-(2,4-difluorophenyl)-6-(pyrimidin-4-yl)-4,4a,5,6,8,8a-hexahydropyrano[3,4-d][1,3]thiazin-2-amine] | 695 nM | – | 390 nM |
| – | NC1=N[C@@]2(c3ccc(F)cc3F)CO[C@@H](c3ccn(C4CC4)n3)C[C@H]2CS1 [Example 19, (4aR,6R,8aS)-6-(1-cyclopropyl-1H-pyrazol-3-yl)-8a-(2,4-difluorophenyl)-4,4a,5,6,8,8a-hexahydropyrano[3,4-d][1,3]thiazin-2-amine] | – | – | 444 nM |
| 14 nM | NC1=N[C@@]2(c3ccc(F)cc3F)CO[C@@H](c3nc(C(F)(F)F)co3)C[C@H]2CS1 [Example 20, (4aR,6R,8aS)-8a-(2,4-difluorophenyl)-6-[4-(trifluoromethyl)-1,3-oxazol-2-yl]-4,4a,5,6,8,8a-hexahydropyrano[3,4-d][1,3]thiazin-2-amine] | 629 nM | – | 467 nM |
| 44 nM | NC1=N[C@@]2(c3ccc(F)cc3F)CO[C@@H](c3ncccn3)C[C@H]2CS1 [Example 21, (4aR,6R,8aS)-8a-(2,4-difluorophenyl)-6-(pyrimidin-2-yl)-4,4a,5,6,8,8a-hexahydropyrano[3,4-d][1,3]thiazin-2-amine] | 3090 nM | – | 983 nM |
| 6 nM | Cc1coc([C@H]2C[C@H]3[C@@H](C)SC(N)=N[C@@]3(c3ccc(F)cc3F)CO2)n1 [Example 22, (4R,4aR,6R,8aS)-8a-(2,4-difluorophenyl)-4-methyl-6-(4-methyl-1,3-oxazol-2-yl)-4,4a,5,6,8,8a-hexahydropyrano[3,4-d][1,3]thiazin-2-amine] | 1400 nM | – | – |
| 10 nM | NC1=N[C@@]2(c3ccc(F)cc3F)CO[C@@H](c3ncc(F)cn3)C[C@H]2CS1 [Example 23, (4aR,6R,8aS)-8a-(2,4-difluorophenyl)-6-(5-fluoropyrimidin-2-yl)-4,4a,5,6,8,8a-hexahydropyrano[3,4-d][1,3]thiazin-2-amine] | – | – | 161 nM |

From US8962616B2, “Heterocyclic substituted hexahydropyrano[3,4-d][1,3]thiazin-2-amine compounds” (Pfizer Inc., priority 2012, dated 2015)
